Patent US20230414602A1, “PHARMACEUTICAL COMPOSITION COMPRISING INSOLUBLE CAMPTOTHECIN COMPOUND-CONTAINING NANOPARTICLE FOR TREATMENT OF CANCER AND COMBINATION THERAPY THEREOF” (SNBioScience Inc., priority 2020, published 2023)
Where a name gives a salt, the structure may show the parent alone.

Tests used:
[1] = tested on: MDA-MB-231; assay: Breast cancer MDA-MB-231 xenograft, tumor volume and TGI (Example 4); type: in vivo, BALB/c nu/nu male mice; conditions: docetaxel 5->15 mg/kg, SNB-101 20 mg/kg (as SN-38), i.v. Q1W x 6
Experimental: (§1) The thawed cells were cultured for one week or longer, with passages every two or three days. The cells were assayed for viability (trypan blue) and infection with bacteria and yeasts (cell images) and mycoplasma (MycoAlert Mycoplasma detection kit).
(§2) Tumor volume and body weight were measured twice a week (intervals of 3 or 4 days) from the time of grouping to the end of the test, and a tumor growth curve was constructed from the start of drug administration to the end of the test.
(§3) As of the end of the experiment, relative tumor growth inhibition (TGI) to the vehicle was calculated using the following equation.
Tumor growth inhibition (TGI) (%)={1−(ΔT/ΔC)}×100 Equation 2

[2] = Body weight of MDA-MB-231 xenograft mice (Example 4); type: in vivo, BALB/c nu/nu male mice
Experimental: as §2

[3] = Body weight of A549 xenograft mice (Example 4); type: in vivo, BALB/c nu/nu male mice
Experimental: as §2

[4] = tested on: A549; assay: Lung cancer A549 xenograft, tumor volume and TGI (Example 4); type: in vivo, BALB/c nu/nu male mice; conditions: docetaxel 5->10 mg/kg, SNB-101 20 mg/kg (as SN-38), i.v. Q1W x 5
Experimental: as §1, §2, §3
Tumor growth inhibition (TGI)(%)={1−(ΔT/ΔC)}×100 Equation 2

[5] = tested on: AsPC-1 cells; assay: AsPC-1 pancreatic cancer xenograft, tumor volume and tumor weight (Example 2); conditions: excised day 22; nab-paclitaxel 5, irinotecan HCl 50, SNB-101 low dose 10/15.9 mg/kg/day
Description: As a pancreatic cancer cell line for a pancreatic cancer xenograft model, AsPC-1 was used. AsPC-1 cells are aggressive cells and are known to have resistance to gemcitabine.

[6] = Body weight of AsPC-1 xenograft mice (Example 2); type: in vivo, BALB/c nu/nu male mice
[7] = tested on: HT-29 colorectal cancer cells; assay: HT-29 colorectal cancer xenograft, tumor volume (Example 5); type: in vivo, BALB/c nude mice
Description: A total of 150 BALB/c nude mice (5-week-old males) were obtained and acclimatized for about one week before transplantation of HT-29 colorectal cancer cells into the subcutaneous area of the right hip. […] after transplantation, 50 mice were selected on the basis of the tumor volume and classified into five groups of 10.
[…] after transplantation of the HT-29 colorectal cancer cells, mice were selected based on the tumor volume and randomly divided into 5 groups (10 mice/group). The drug administration group was set as in Table 13, below.
An autopsy was performed on day 28. A 5% dextrose solution used as a vehicle for the control was equally administered at a dose of 10 mL/kg.
Test results are expressed as mean±S.D. in Table 14, below.

CC(=O)O[C@@]12CO[C@@H]1C[C@H](O)[C@@]1(C)C(=O)[C@H](O)C3=C(C)[C@@H](OC(=O)[C@H](O)[C@@H](NC(=O)OC(C)(C)C)c4ccccc4)C[C@@](O)([C@@H](OC(=O)c4ccccc4)[C@H]21)C3(C)C [Docetaxel, docetaxel]
average tumor volume ([1]; end of experiment (35 days after drug administration)): 1,228.93 mm3
TGI (%) ([1]; relative to vehicle, end of experiment (day 35)): 27.6%
Body weight at the start of drug administration (day 0) ([2]; day 0, MDA-MB-231 xenograft mice): 19.63 g
Body weight at the end of the test (day 35) ([2]; day 35, docetaxel 5->15 mg/kg, SNB-101 20 mg/kg (as SN-38), i.v. Q1W x 6): 20.25 g
Body weight at the start of drug administration (day 0) [3]: 17.93 g
average tumor volume ([4]; end of experiment (37 days after drug administration)): 402.70 mm3
TGI (%) ([4]; relative to vehicle, end of experiment (day 37)): 50.0%

CCc1c2c(nc3ccc(OC(=O)N4CCC(N5CCCCC5)CC4)cc13)-c1cc3c(c(=O)n1C2)COC(=O)[C@]3(O)CC [Irinotecan HCl, irinotecan hydrochloride]
Tumor weight [5]: 0.489 ± 0.101 g
Body weight, Day 0 ([6]; Day 0, i.v., nab-paclitaxel 5, irinotecan HCl 50, SNB-101 low dose 10/15.9 mg/kg/day (SN-38/irinotecan HCl)): 21.3 ± 0.9 g
Body weight, Day 3 ([6]; Day 3, i.v., nab-paclitaxel 5, irinotecan HCl 50, SNB-101 low dose 10/15.9 mg/kg/day): 22.1 ± 1.1 g
Body weight, Day 7 ([6]; Day 7, i.v., nab-paclitaxel 5, irinotecan HCl 50, SNB-101 low dose 10/15.9 mg/kg/day): 22.8 ± 1.1 g
Body weight, Day 11 ([6]; Day 11, i.v., nab-paclitaxel 5, irinotecan HCl 50, SNB-101 low dose 10/15.9 mg/kg/day): 22.9 ± 1.2 g
Body weight, Day 14 ([6]; Day 14, i.v., nab-paclitaxel 5, irinotecan HCl 50, SNB-101 low dose 10/15.9 mg/kg/day): 23.4 ± 1.2 g
Body weight, Day 17 ([6]; Day 17, i.v., nab-paclitaxel 5, irinotecan HCl 50, SNB-101 low dose 10/15.9 mg/kg/day): 22.9 ± 1.2 g
Body weight, Day 21 ([6]; Day 21, i.v., nab-paclitaxel 5, irinotecan HCl 50, SNB-101 low dose 10/15.9 mg/kg/day): 22.6 ± 1.2 g
Body weight, Day 22 ([6]; Day 22 (autopsy), i.v., nab-paclitaxel 5, irinotecan HCl 50, SNB-101 low dose 10/15.9 mg/kg/day): 21.7 ± 1.3 g
weight loss rate compared to G1 (vehicle group) ([6]; day 22, nab-paclitaxel 5, irinotecan HCl 50, SNB-101 low dose 10/15.9 mg/kg/day): 10.0%

Bevacizumab: monoclonal antibody and target anticancer drug (trade name Avastin)
Tumor volume (mm^3) Test start A (day 1) ([7]; day 1, SNB-101 20/31.8 mg/kg venous, bevacizumab 5 mg/kg peritoneal, irinotecan 50 mg/kg venous, days 1, 4, 7): 96.67 ± 14.79 mm^3
Tumor volume (mm^3) Test end B (day 28) ([7]; day 28, SNB-101 20/31.8 mg/kg venous, bevacizumab 5 mg/kg peritoneal, irinotecan 50 mg/kg venous, days 1, 4, 7): 709.38 ± 266.87 mm^3
Tumor Volume Change (mm^3) [B − A] ([7]; day 28 minus day 1, SNB-101 20/31.8, bevacizumab 5, irinotecan 50 mg/kg): 612.71 ± 259.64 mm^3
